In patent US20230085307A1, “PYRIDAZINONE COMPOUND AND HERBICIDE” (NISSAN CHEMICAL CORPORATION, priority 2019, published 2023):

What was measured:
late watergrass = assay: Test Example 2: herbicidal activity, application during weed generation under submerged conditions (Table 17, symbol A); assay type: in vivo, late watergrass (Echinochloa oryzicola); conditions: AAH 320 g/ha; application during weed generation, submerged conditions
Outline: (§1)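 Alluvial soil in Wagner pots was flooded to 4 cm depth and sown with the three weeds together; pots were kept in a greenhouse at 25° C. to 30° C. At the one to two leaf stage, an emulsion formulation diluted in water to a set rate went onto the water surface; scored three weeks later.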

Japanese bulrush = assay: Test Example 2: herbicidal activity, application during weed generation under submerged conditions (Table 17, symbol B); assay type: in vivo, Japanese bulrush (Schoenoplectus juncoides); conditions: AAH 320 g/ha; application during weed generation, submerged conditions
Outline: as §1

oval-leafed pondweed = assay: Test Example 2: herbicidal activity, application during weed generation under submerged conditions (Table 17, symbol C); assay type: in vivo, oval-leafed pondweed (Monochoria vaginalis); conditions: AAH 320 g/ha; application during weed generation, submerged conditions
Outline: as §1

barnyard grass [1] = assay: Test Example 3: herbicidal effect by foliage application, Wagner pot (Table 18, symbol H); assay type: in vivo, barnyard grass (Echinochloa crus-galli); conditions: 320 g/ha
Outline: (§2)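 Plants were sown in alluvial soil held under 0.1–0.5 cm standing water and grown 14 days in a greenhouse at 25–30 °C. An emulsifiable formulation, water-diluted to the set dose, was then sprayed onto the foliage, and effects were scored three weeks later using previously defined criteria.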

Chinese sprangletop = assay: Test Example 3: herbicidal effect by foliage application, Wagner pot (Table 18, symbol D); assay type: in vivo, chinese sprangletop (Leptochloa chinensis); conditions: 320 g/ha
Outline: as §2

rice flat sedge = assay: Test Example 3: herbicidal effect by foliage application, Wagner pot (Table 18, symbol E); assay type: in vivo, rice flat sedge (Cyperus iria); conditions: 320 g/ha
Outline: as §2

southern crabgrass [2] = assay: Test Example 4: herbicidal effect by soil treatment (Table 19, symbol F); assay type: in vivo, southern crabgrass (Digitaria ciliaris); conditions: amount of applied herbicide 320 g/ha
Outline: (§3)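 Soil-surface application: an emulsion agent diluted with water to the predetermined dose is sprayed uniformly over seeds lying under roughly 1.5 cm of sterilized diluvial soil. Boxes stay in a greenhouse at 25° C. to 30° C. Three weeks later, each species is graded on previously defined criteria.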

green foxtail [3] = assay: Test Example 4: herbicidal effect by soil treatment (Table 19, symbol G); assay type: in vivo, green foxtail (Setaria viridis); conditions: amount of applied herbicide 320 g/ha
Outline: as §3

barnyard grass [4] = assay: Test Example 4: herbicidal effect by soil treatment (Table 19, symbol H); assay type: in vivo, barnyard grass (Echinochloa crus-galli); conditions: amount of applied herbicide 320 g/ha
Outline: as §3

wild oat [5] = assay: Test Example 4: herbicidal effect by soil treatment (Table 19, symbol I); assay type: in vivo, wild oat (Avena fatua); conditions: amount of applied herbicide 320 g/ha
Outline: as §3

blackgrass [6] = assay: Test Example 4: herbicidal effect by soil treatment (Table 19, symbol J); assay type: in vivo, blackgrass (Alopecurus myosuroides); conditions: amount of applied herbicide 320 g/ha
Outline: as §3

Italian ryegrass [7] = assay: Test Example 4: herbicidal effect by soil treatment (Table 19, symbol K); assay type: in vivo, Italian ryegrass (Lolium multiflorum); conditions: amount of applied herbicide 320 g/ha
Outline: as §3

velvetleaf [8] = assay: Test Example 4: herbicidal effect by soil treatment (Table 19, symbol M); assay type: in vivo, velvetleaf (Abutilon theophrasti); conditions: amount of applied herbicide 320 g/ha
Outline: as §3

redroot pigweed [9] = assay: Test Example 4: herbicidal effect by soil treatment (Table 19, symbol N); assay type: in vivo, redroot pigweed (Amaranthus retroflexus); conditions: amount of applied herbicide 320 g/ha
Outline: as §3

chickweed [10] = assay: Test Example 4: herbicidal effect by soil treatment (Table 19, symbol P); assay type: in vivo, common chickweed (Stellaria media); conditions: amount of applied herbicide 320 g/ha
Outline: as §3

false cleavers [11] = assay: Test Example 4: herbicidal effect by soil treatment (Table 19, symbol Q); assay type: in vivo, false cleavers (Galium spurium); conditions: amount of applied herbicide 320 g/ha
Outline: as §3

persian speedwell [12] = assay: Test Example 4: herbicidal effect by soil treatment (Table 19, symbol R); assay type: in vivo, Persian speedwell (Veronica persica); conditions: amount of applied herbicide 320 g/ha
Outline: as §3

southern crabgrass [13] = assay: Test Example 5: herbicidal effect by foliage application, plastic box (Table 20, symbol F); assay type: in vivo, southern crabgrass (Digitaria ciliaris); conditions: foliage application, 320 g/ha, three weeks after application
Outline: (§4)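 Sow seeds spot-wise in sterilized diluvial soil; cover with ~1.5 cm soil. Grow 14 days in greenhouse, 25° C. to 30° C. Spray foliage with emulsion diluted to predetermined amount. Rate effect after 3 weeks.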

green foxtail [14] = assay: Test Example 5: herbicidal effect by foliage application, plastic box (Table 20, symbol G); assay type: in vivo, green foxtail (Setaria viridis); conditions: foliage application, 320 g/ha, three weeks after application
Outline: as §4

barnyard grass [15] = assay: Test Example 5: herbicidal effect by foliage application, plastic box (Table 20, symbol H); assay type: in vivo, barnyard grass (Echinochloa crus-galli); conditions: foliage application, 320 g/ha, three weeks after application
Outline: as §4

wild oat [16] = assay: Test Example 5: herbicidal effect by foliage application, plastic box (Table 20, symbol I); assay type: in vivo, wild oat (Avena fatua); conditions: foliage application, 320 g/ha, three weeks after application
Outline: as §4

blackgrass [17] = assay: Test Example 5: herbicidal effect by foliage application, plastic box (Table 20, symbol J); assay type: in vivo, blackgrass (Alopecurus myosuroides); conditions: foliage application, 320 g/ha, three weeks after application
Outline: as §4

Italian ryegrass [18] = assay: Test Example 5: herbicidal effect by foliage application, plastic box (Table 20, symbol K); assay type: in vivo, Italian ryegrass (Lolium multiflorum); conditions: foliage application, 320 g/ha, three weeks after application
Outline: as §4

windgrass = assay: Test Example 5: herbicidal effect by foliage application, plastic box (Table 20, symbol L); assay type: in vivo, windgrass (Apera spica-venti); conditions: foliage application, 320 g/ha, three weeks after application
Outline: as §4

velvetleaf [19] = assay: Test Example 5: herbicidal effect by foliage application, plastic box (Table 20, symbol M); assay type: in vivo, velvetleaf (Abutilon theophrasti); conditions: foliage application, 320 g/ha, three weeks after application
Outline: as §4

redroot pigweed [20] = assay: Test Example 5: herbicidal effect by foliage application, plastic box (Table 20, symbol N); assay type: in vivo, redroot pigweed (Amaranthus retroflexus); conditions: foliage application, 320 g/ha, three weeks after application
Outline: as §4

lambsquarters = assay: Test Example 5: herbicidal effect by foliage application, plastic box (Table 20, symbol O); assay type: in vivo, lambsquarters (Chenopodium album); conditions: foliage application, 320 g/ha, three weeks after application
Outline: as §4

chickweed [21] = assay: Test Example 5: herbicidal effect by foliage application, plastic box (Table 20, symbol P); assay type: in vivo, common chickweed (Stellaria media); conditions: foliage application, 320 g/ha, three weeks after application
Outline: as §4

false cleavers [22] = assay: Test Example 5: herbicidal effect by foliage application, plastic box (Table 20, symbol Q); assay type: in vivo, false cleavers (Galium spurium); conditions: foliage application, 320 g/ha, three weeks after application
Outline: as §4

persian speedwell [23] = assay: Test Example 5: herbicidal effect by foliage application, plastic box (Table 20, symbol R); assay type: in vivo, Persian speedwell (Veronica persica); conditions: foliage application, 320 g/ha, three weeks after application
Outline: as §4

COc1ccc(-c2sc3ccccc3c2-c2c(O)c(C)nn(C)c2=O)cc1C [1-068]
herbicidal effect rating, A: late watergrass (late watergrass): 0 (Herbicidal rate of 5% or less (almost no effect)) | herbicidal effect rating, B: Japanese bulrush (Japanese bulrush): 1 (Herbicidal rate of 5% or more and less than 20%) | herbicidal effect rating, C: oval-leafed pondweed (oval-leafed pondweed): 3 (Herbicidal rate of 40% or more and less than 70%) | herbicidal effect on H (barnyard grass), rating 0-5 (barnyard grass [1]): 3 (Herbicidal rate of 40% or more and less than 70%) | herbicidal effect on D (Chinese sprangletop), rating 0-5 (Chinese sprangletop): 1 (Herbicidal rate of 5% or more and less than 20%) | herbicidal effect on E (rice flat sedge), rating 0-5 (rice flat sedge): 5 (Herbicidal rate of 90% or more (almost completely withered)) | herbicidal effect rating, F: southern crabgrass (southern crabgrass [2]): 0 (Herbicidal rate of 5% or less (almost no effect)) | herbicidal effect rating, G: green foxtail (green foxtail [3]): 4 (Herbicidal rate of 70% or more and less than 90%) | herbicidal effect rating, H: barnyard grass (barnyard grass [4]): 4 (Herbicidal rate of 70% or more and less than 90%) | herbicidal effect rating, I: wild oat (wild oat [5]): 0 (Herbicidal rate of 5% or less (almost no effect)) | herbicidal effect rating, J: blackgrass (blackgrass [6]): 0 (Herbicidal rate of 5% or less (almost no effect)) | herbicidal effect rating, K: Italian ryegrass (Italian ryegrass [7]): 2 (Herbicidal rate of 20% or more and less than 40%) | herbicidal effect rating, M: velvetleaf (velvetleaf [8]): 0 (Herbicidal rate of 5% or less (almost no effect)) | herbicidal effect rating, N: redroot pigweed (redroot pigweed [9]): 0 (Herbicidal rate of 5% or less (almost no effect)) | herbicidal effect rating, P: chickweed (chickweed [10]): 2 (Herbicidal rate of 20% or more and less than 40%) | herbicidal effect rating, Q: false cleavers (false cleavers [11]): 0 (Herbicidal rate of 5% or less (almost no effect)) | herbicidal effect rating, R: persian speedwell (persian speedwell [12]): 4 (Herbicidal rate of 70% or more and less than 90%) | herbicidal effect grade, F: southern crabgrass (southern crabgrass [13]): 3 (Herbicidal rate of 40% or more and less than 70%) | herbicidal effect grade, G: green foxtail (green foxtail [14]): 3 (Herbicidal rate of 40% or more and less than 70%) | herbicidal effect grade, H: barnyard grass (barnyard grass [15]): 3 (Herbicidal rate of 40% or more and less than 70%) | herbicidal effect grade, I: wild oat (wild oat [16]): 1 (Herbicidal rate of 5% or more and less than 20%) | herbicidal effect grade, J: blackgrass (blackgrass [17]): 0 (Herbicidal rate of 5% or less (almost no effect)) | herbicidal effect grade, K: Italian ryegrass (Italian ryegrass [18]): 3 (Herbicidal rate of 40% or more and less than 70%) | herbicidal effect grade, L: windgrass (windgrass): 0 (Herbicidal rate of 5% or less (almost no effect)) | herbicidal effect grade, M: velvetleaf (velvetleaf [19]): 3 (Herbicidal rate of 40% or more and less than 70%) | herbicidal effect grade, N: redroot pigweed (redroot pigweed [20]): 0 (Herbicidal rate of 5% or less (almost no effect)) | herbicidal effect grade, O: lambsquarters (lambsquarters): 3 (Herbicidal rate of 40% or more and less than 70%) | herbicidal effect grade, P: chickweed (chickweed [21]): 5 (Herbicidal rate of 90% or more (almost completely withered)) | herbicidal effect grade, Q: false cleavers (false cleavers [22]): 0 (Herbicidal rate of 5% or less (almost no effect)) | herbicidal effect grade, R: persian speedwell (persian speedwell [23]): 5 (Herbicidal rate of 90% or more (almost completely withered))
